Experimental data reported in US20020026052A1, “3-cyanoquinolines, 3-cyano-1,6-naphthyridines, and 3-cyano-1,7-naphthyridines as protein kinase inhibitors” (American Home Products Corporation, priority 2000, published 2002).
Several values for one entry are separate records, joined by “and”; a condition that tells them apart may be missing. Equal entries are not always repeated.

Columns and labels:
[1] = target: Rat2 fibroblasts stably transformed with v-Src/Hu c-Src fusion gene (Homo sapiens, UniProt P12931, cells depend on it, form not given); experiment: Anchorage Independent Src-transformed Fibroblast Proliferation Assay; assay type: cell-based, Rat; details: suspension growth, MTS reagent on Day 5; read-out: anch-indep src-tx fib IC50
Experimental: Anchorage Independent Src-transformed Fibroblast Proliferation Assay
Rat2 fibroblasts stably transformed with a plasmid containing a CMV promotor controlled v-Src/Hu c-Src fusion gene in which the catalytic domain of human c-Src was inserted in place of the v-Src catalytic domain in the v-Src gene are used for the measurement of src dependent suspension growth. […] Multiple entries for a given compound indicate that it was tested multiple times.

Sequence of Rat2 fibroblasts stably transformed with v-Src/Hu c-Src fusion gene (P12931 whole entry, change not shown, the tested form may be a part): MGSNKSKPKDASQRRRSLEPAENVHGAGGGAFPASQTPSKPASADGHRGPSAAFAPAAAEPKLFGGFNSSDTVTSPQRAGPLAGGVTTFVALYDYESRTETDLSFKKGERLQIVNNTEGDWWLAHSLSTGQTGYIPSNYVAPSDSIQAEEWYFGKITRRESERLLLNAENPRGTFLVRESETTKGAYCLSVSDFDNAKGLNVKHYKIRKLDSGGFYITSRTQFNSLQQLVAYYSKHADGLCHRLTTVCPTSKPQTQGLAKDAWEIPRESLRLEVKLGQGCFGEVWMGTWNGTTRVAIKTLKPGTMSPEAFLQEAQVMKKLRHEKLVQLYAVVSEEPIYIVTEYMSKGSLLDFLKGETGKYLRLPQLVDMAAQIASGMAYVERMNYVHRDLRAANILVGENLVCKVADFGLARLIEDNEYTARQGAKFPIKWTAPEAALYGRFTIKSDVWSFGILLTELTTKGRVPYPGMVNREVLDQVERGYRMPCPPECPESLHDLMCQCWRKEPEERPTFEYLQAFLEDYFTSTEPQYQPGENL

CCN1CCN(Cc2cc(-c3ccc4c(Nc5cc(OC)c(Cl)cc5Cl)c(C#N)cnc4c3)cs2)CC1 [Example 19, 4-(2,4-dichloro-5-methoxyanilino)-7-{5-[(4-ethyl-1-piperazinyl)methyl]-3-thienyl}-3-quinolinecarbonitrile]
GI50 [1]: 160 nM

COc1cc(Nc2c(C#N)cnc3cc(-c4csc(CN5CCOCC5)c4)ccc23)c(Cl)cc1Cl [Example 24, 4-(2,4-Dichloro-5-methoxyanilino)-7-[5-(4-morpholinylmethyl)-3-thienyl]-3-quinolinecarbonitrile]
GI50 [1]: 180 nM

COc1cc(Nc2c(C#N)cnc3cc(-c4ccccc4CN4CCOCC4)ccc23)c(Cl)cc1Cl [Example 115, 4-(2,4-Dichloro-5-methoxyanilino)-7-[2-(4-morpholinylmethyl)phenyl]-3-quinolinecarbonitrile]
GI50 [1]: > 10000 nM

COc1cc(Nc2c(C#N)cnc3cc(C#Cc4ccccn4)ccc23)c(Cl)cc1Cl [Example 91, 4-(2,4-Dichloro-5-methoxyanilino)-7-[2-(2-pyridinyl)ethynyl]-3-quinolinecarbonitrile]
GI50 [1]: > 10000 nM

COc1cc(Nc2c(C#N)cnc3cc(-c4ccsc4CN4CCOCC4)ccc23)c(Cl)cc1Cl [Example 66, 4-(2,4-Dichloro-5-methoxyanilino)-7-[2-(4-morpholinylmethyl)-3-thienyl]-3-quinolinecarbonitrile]
GI50 [1]: > 10000 nM

COc1cc(Nc2c(C#N)cnc3cc(-c4cccc(CCN5CCOCC5)c4)ccc23)c(Cl)cc1Cl [Example 28, 4-(2,4-Dichloro-5-methoxyanilino)-7-{3-[2-(4-morpholinyl)ethyl]phenyl}-3-quinolinecarbonitrile]
GI50 [1]: 4100 nM

COc1cc(Nc2c(C#N)cnc3cc(-c4ccc(CNCCS(=O)(=O)c5ccccc5)n4C)ccc23)c(Cl)cc1Cl [Example 72, 4-(2,4-dichloro-5-methoxyanilino)-7-[1-methyl-5-({[2-(phenylsulfonyl)ethyl]amino}methyl)-1H-pyrrol-2-yl]-3-quinolinecarbonitrile]
GI50 [1]: > 10000 nM

COc1cc(Nc2c(C#N)cnc3cc(-c4csc(CN5CCC(O)CC5)c4)ccc23)c(Cl)cc1Cl [Example 192, 4-(2,4-Dichloro-5-methoxyanilino)-7-{5-[(4-hydroxy-1-piperidinyl)methyl]-3-thienyl}-3-quinolinecarbonitrile]
GI50 [1]: 170 nM

COc1cc(Nc2c(C#N)cnc3cc(-c4ccc[nH]4)ccc23)c(Cl)cc1Cl [Example 104, 4-(2,4-Dichloro-5-methoxyanilino)-7-(1H-pyrrol-2-yl)-3-quinolinecarbonitrile]
GI50 [1]: 560 nM

COc1cc(Nc2c(C#N)cnc3cc(-c4ccc(CN5CCOCC5)cc4)ccc23)c(Cl)cc1Cl [Example 29, 4-(2,4-Dichloro-5-methoxyanilino)-7-[4-(4-morpholinylmethyl)phenyl]-3-quinolinecarbonitrile]
GI50 [1]: 540 nM and 500 nM

COc1cc(Nc2c(C#N)cnc3cc(-c4cc(CN5CCOCC5)cs4)ccc23)c(Cl)cc1Cl [Example 68, 4-(2,4-Dichloro-5-methoxyanilino)-7-[4-(4-morpholinylmethyl)-2-thienyl]-3-quinolinecarbonitrile]
GI50 [1]: 120 nM

COc1cc(Nc2c(C#N)cnc3cc(-c4ccccc4C=O)ccc23)c(Cl)cc1Cl [Example 114, 4-(2,4-Dichloro-5-methoxyanilino)-7-(2-formylphenyl)-3-quinolinecarbonittile]
GI50 [1]: > 10000 nM

N#Cc1cnc2ccc(-n3cccc3C=O)cc2c1Nc1cccc(Br)c1 [Example 60, 4-(3-Bromoanilino)-6-(2-formyl-1H-pyrrol-1-yl)-3-quinolinecarbonitrile]
melting point: 94 to 95 °C

Cn1ccnc1Sc1ccc(Nc2c(C#N)cnc3cc(-c4cc(CN5CCOCC5)c(CN5CCOCC5)s4)ccc23)cc1Cl [Example 169, 7-[4,5-Bis(4-morpholinylmethyl)-2-thienyl]-4-{3-chloro-4-[(1-methyl-1H-irnidazol-2-yl)sulfanyl]anilino}-3-quinolinecarbonitrile]
melting point: 173 to 175 °C

Cn1ccnc1Sc1ccc(Nc2c(C#N)cnc3cc(-c4ccc(N5CCOCC5)nc4)ccc23)cc1Cl [Example 190, 4-{3-Chloro-4-[(1-methyl-1H-imidazol-2-yl)sulfanyl]anilino}-7-[6-(4-morpholinyl)-3-pyridinyl]-3-quinolinecarbonitrile]
melting point: > 250 °C

Cn1ccnc1Sc1ccc(Nc2c(C#N)cnc3cc(-c4ccc(Cl)cn4)ccc23)cc1Cl [Example 178, 4-({3-Chloro-4-[(1-methyl-1H-imidazol-2-yl)sulfanyl]phenyl}amino)-7-(5-chloro-2-pyridinyl)-3-quinolinecarbonitrile]
melting point: 205 to 207 °C

CN1CCN(Cc2ccc(-c3ccc4c(Nc5ccc(Sc6nccn6C)c(Cl)c5)c(C#N)cnc4c3)nc2)CC1 [Example 189, 4-{3-Chloro-4-[(1-methyl-1H-imidazol-2-yl)sulfanyl]anilino}-7-1-{5-[(4-methyl-1-piperazinyl)methyl]-2-pyridinyl}-3-quinolinecarbonitrile]
melting point: 197 to 199 °C

COc1cc(Nc2c(C#N)cnc3cc(-c4cncc(CN5CCOCC5)c4)ccc23)c(Cl)cc1Cl
melting point: 141 to 143 °C

Cn1ccnc1Sc1ccc(Nc2c(C#N)cnc3cc(-c4ccc(CN5CCN(C(=O)OC(C)(C)C)CC5)cc4)ccc23)cc1Cl [Example 137, tert-butyl 4-{4-[4-({3-chloro-4-[(1-methylimidazol-2-yl)sulfanyl]phenyl}amino)-3-cyano-7-quinolinyl]benzyl}-1-piperazinecarboxylate]
melting point: 184 to 186 °C

Cn1ccnc1Sc1ccc(Nc2c(C#N)cnc3cc(-c4ccc(C(=O)N5CCOCC5)cc4)ccc23)cc1Cl [Example 129, 4-({3-Chloro-4-[(i-methyl-IH-imidazol-2-yl)sulfanyl]phenyl}amino)-7-[4-(4-morpholinylcarbonyl)phenyl]-3-quinolinecarbonitrile]
melting point: 98 to 101 °C

CCN1CCN(Cc2cccnc2-c2ccc3c(Nc4ccc(Sc5nccn5C)c(Cl)c4)c(C#N)cnc3c2)CC1 [Example 208, 4-({3-Chloro-4-[(1-methyl-1H-imldazol-2-yl)sulfanyl]phenyl}amino)-7-{3-[(4-ethyl-1-piperazinyl)methyl]-2-pyridinyl}-3-quinolinecarbonitrile]
melting point: 187 to 190 °C

COc1cc(Nc2c(C#N)cnc3cc(-c4ccc(CN5CCOCC5)cn4)ccc23)c(Cl)cc1Cl
melting point: 220 to 222 °C

Cn1ccnc1Sc1ccc(Nc2c(C#N)cnc3cc(-c4cccc(CN5CCOCC5)n4)ccc23)cc1Cl [Example 199, 4-{3-Chloro-4-[(1-methyl-1H-imidazol-2-yl)sulfanyl]anilino}-7-[6-(4-morpholinylmethyl)-2-pyridinyl]-3-quinolinecarbonitrile]
melting point: 232 to 234 °C

COc1cc(Nc2c(C#N)cnc3cc(-c4cnc(CN5CCN(C)CC5)n4C)c(OC)cc23)c(Cl)cc1Cl [Example 233, 4-(2,4-Dichloro-5-methoxyanilino)-6-methoxy-7-{1-methyl-2-[(4-methyl-1-piperazinyl)methyl]-1H-imidazol-5-yl}-3-quinolinecarbonitrile]
melting point: 234 to 236 °C

Cn1ccnc1Sc1ccc(Nc2c(C#N)cnc3cc(-c4ccc(CN5CCCCC5)s4)ccc23)cc1Cl [Example 160, 4-{3-Chloro-4-[(1-methyl-1H-imidazol-2-yl)sulfanyl]anilino}-7-[5-(1-piperidinylmethyl)-2-thienyl]-3-quinolinecarbonitrile]
melting point: 100 °C (dec.)

Cn1ccnc1Sc1ccc(Nc2c(C#N)cnc3cc(-c4ccc(CN5CCSCC5)cn4)ccc23)cc1Cl [Example 219]
melting point: 220 to 222 °C

COc1cc(Nc2c(C#N)cnc3cc(-c4ccc(CN5CCN(C)CC5)cn4)ccc23)c(Cl)cc1Cl
melting point: 212 to 215 °C

CCN1CCN(Cc2cccc(-c3ccc4c(Nc5ccc(Sc6nccn6C)c(Cl)c5)c(C#N)cnc4c3)n2)CC1 [Example 201, 4-{3-Chloro-4-[(1-methyl-1H-imidazol-2-yl)sulfanyl]anilino}-7-{6-[(4-ethyl-1-piperazinyl)methyl]-2-pyridinyl}-3-quinolinecarbonitrile]
melting point: 214 to 216 °C

N#Cc1cnc2cc(-c3csc(CN4CCOCC4)c3)ccc2c1Nc1ccc(Oc2ccccc2)cc1 [Example 7, 7-[5-(4-Morpholinylmethyl)-3-thienyl]-4-(4-phenoxyanilino)-3-quinolinecarbonitrile]
melting point: 221 to 223 °C

N#Cc1cnc2cc(-c3csc(CN4CCOCC4)c3)ccc2c1Nc1ccc(Cc2ccccc2)cc1 [Example 8, 4-(4-Benzylanilino)-7-[5-(4-morpholinylmethyl)-3-thienyl]-3-quinolinecarbonitrile]
melting point: 228 to 230 °C

COc1cc(Nc2c(C#N)cnc3cc(-c4ccc(CN5CCOCC5)c(CN5CCOCC5)c4)ccc23)c(Cl)cc1Cl [Example 34, 7-[3,4-bis(4-morpholinylmethyl)phenyl]-4-(2,4-dichloro-5-methoxyanilino)-3-quinolinecarbonitrile]
melting point: 198 to 200 °C

COc1cc(Nc2c(C#N)cnc3cc(-c4cnc(CN5CCOCC5)n4C)ccc23)c(Cl)cc1Cl [Example 226, 4-(2,4-Dichloro-5-methoxyanilino)-7-[1-methyl-2-(4-morpholinylmethyl)-1H-imidazol-5-yl]-3-quinolinecarbonitrile]
melting point: 140 to 143 °C

N#Cc1cnc2cc(-c3cncc(CN4CCOCC4)c3)ccc2c1Nc1ccc(Oc2ccccc2)cc1 [Example 48, 7-[5-(4-Morpholinylmethyl)-3-pyridinyl]-4-(4-phenoxyanilino)-3-quinolinecarbonitrile]
melting point: 185 to 187 °C

CCN1CCN(c2ccc(-c3ccc4ncc(C#N)c(Nc5ccc(Sc6nccn6C)c(Cl)c5)c4c3)nc2)CC1 [Example 181, 4-({3-Chloro-4-[(1-methyl-1H-imidazol-2-yl)sulfanyl]phenyl}amino)-6-[5-(4-ethyl-1-piperazinyl)-2-pyridinyl]-3-quinolinecarbonitrile]
melting point: 150 °C (dec.)
